In PMC5224880, “Discovery and Molecular Basis of a Diverse Set of Polycomb Repressive Complex 2 Inhibitors Recognition by EED” (PLoS ONE, 2017):
pIC50: −log10 of the molar value.

Key:
Format in all cases: biochemical
[1] = biological target: T1, SMYD3 (Homo sapiens, UniProt Q9H7B4); test: HMT panel selectivity: SMYD3
T1 sequence (Q9H7B4 1-428): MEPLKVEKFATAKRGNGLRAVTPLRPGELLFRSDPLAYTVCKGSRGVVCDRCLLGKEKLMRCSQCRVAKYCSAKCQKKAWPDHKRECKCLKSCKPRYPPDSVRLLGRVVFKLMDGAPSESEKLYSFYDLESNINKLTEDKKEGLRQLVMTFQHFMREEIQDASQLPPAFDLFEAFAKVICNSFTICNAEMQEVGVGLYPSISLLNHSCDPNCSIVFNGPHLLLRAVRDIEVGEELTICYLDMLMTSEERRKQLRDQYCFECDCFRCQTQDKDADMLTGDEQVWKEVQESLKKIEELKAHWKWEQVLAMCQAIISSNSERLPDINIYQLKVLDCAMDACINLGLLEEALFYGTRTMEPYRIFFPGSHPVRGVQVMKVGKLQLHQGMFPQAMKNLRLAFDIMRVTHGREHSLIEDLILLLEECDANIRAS
Method: (§1) Note: for EZH2, EZH2/EED/SUZ12/RBAP48/AEBP2 was used in the assay; for EZH1, EZH1/EED/SUZ12/RBAP48/AEBP2 was used in the assay; for MLL, MLL/WDR5/RBBP5/ASH2L/ was use in the assay. a, H3K27me0 peptide was used as substrate for both EZH2 and EZH1 activity; b, H3K27me1 peptide was used as substrate for both EZH2 and EZH1 activity. All HMT reactions were performed as described previously. ref: Proc Natl Acad Sci U S A. 2012 Dec 26;109(52):21360-5.

[2] = biological target: SMYD2 (Homo sapiens, UniProt Q9NRG4); test: HMT panel selectivity: SMYD2
Sequence of SMYD2 (Q9NRG4 whole entry, species assumed): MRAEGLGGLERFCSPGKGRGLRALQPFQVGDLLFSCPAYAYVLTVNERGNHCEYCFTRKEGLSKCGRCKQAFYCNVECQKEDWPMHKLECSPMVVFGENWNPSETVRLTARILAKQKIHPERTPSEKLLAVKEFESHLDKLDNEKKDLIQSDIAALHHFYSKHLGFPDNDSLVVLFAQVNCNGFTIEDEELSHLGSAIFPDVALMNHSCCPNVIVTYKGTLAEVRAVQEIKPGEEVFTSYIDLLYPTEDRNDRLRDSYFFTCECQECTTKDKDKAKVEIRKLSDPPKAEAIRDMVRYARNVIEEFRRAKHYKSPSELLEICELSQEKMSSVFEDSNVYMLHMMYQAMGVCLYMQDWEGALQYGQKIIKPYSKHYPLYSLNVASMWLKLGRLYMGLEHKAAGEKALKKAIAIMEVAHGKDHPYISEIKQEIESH
Method: as §1

[3] = biological target: T2, G9a (Homo sapiens, UniProt Q96KQ7); test: HMT panel selectivity: G9a
T2 sequence (Q96KQ7 1-1210): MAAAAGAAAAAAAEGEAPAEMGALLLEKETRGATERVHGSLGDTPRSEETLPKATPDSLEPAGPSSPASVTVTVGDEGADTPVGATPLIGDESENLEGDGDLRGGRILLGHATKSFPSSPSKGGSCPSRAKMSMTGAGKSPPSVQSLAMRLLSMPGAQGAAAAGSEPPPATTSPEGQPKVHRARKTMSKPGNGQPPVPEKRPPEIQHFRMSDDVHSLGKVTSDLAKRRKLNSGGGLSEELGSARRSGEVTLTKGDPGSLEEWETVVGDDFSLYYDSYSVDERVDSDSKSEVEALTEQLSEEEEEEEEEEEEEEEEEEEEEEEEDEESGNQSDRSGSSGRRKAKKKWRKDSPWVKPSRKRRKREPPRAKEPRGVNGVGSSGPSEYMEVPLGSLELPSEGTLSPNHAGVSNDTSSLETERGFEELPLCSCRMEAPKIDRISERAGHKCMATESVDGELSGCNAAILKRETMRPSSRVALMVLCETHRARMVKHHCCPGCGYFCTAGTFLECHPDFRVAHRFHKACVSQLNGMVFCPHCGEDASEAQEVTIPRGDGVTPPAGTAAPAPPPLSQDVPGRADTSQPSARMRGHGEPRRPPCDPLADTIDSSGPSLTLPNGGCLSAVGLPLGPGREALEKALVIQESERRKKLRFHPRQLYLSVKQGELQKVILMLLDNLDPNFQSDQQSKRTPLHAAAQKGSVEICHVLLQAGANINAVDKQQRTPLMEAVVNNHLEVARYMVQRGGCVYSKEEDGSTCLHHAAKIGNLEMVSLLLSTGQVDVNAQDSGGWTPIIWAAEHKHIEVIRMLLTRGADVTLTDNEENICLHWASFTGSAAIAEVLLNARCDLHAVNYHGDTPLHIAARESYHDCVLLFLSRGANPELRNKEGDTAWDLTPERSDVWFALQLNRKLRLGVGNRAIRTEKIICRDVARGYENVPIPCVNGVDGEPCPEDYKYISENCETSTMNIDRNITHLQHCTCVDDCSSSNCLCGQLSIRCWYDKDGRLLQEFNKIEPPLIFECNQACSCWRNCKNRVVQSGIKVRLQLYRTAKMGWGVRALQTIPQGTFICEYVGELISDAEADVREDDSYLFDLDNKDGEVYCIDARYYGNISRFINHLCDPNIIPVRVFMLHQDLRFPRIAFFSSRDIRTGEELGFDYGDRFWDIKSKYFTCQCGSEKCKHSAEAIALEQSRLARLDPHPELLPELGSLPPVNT
Method: as §1

[4] = biological target: PRMT1 (Homo sapiens, UniProt Q99873); test: HMT panel selectivity: PRMT1
Sequence of PRMT1 (Q99873 whole entry, species assumed): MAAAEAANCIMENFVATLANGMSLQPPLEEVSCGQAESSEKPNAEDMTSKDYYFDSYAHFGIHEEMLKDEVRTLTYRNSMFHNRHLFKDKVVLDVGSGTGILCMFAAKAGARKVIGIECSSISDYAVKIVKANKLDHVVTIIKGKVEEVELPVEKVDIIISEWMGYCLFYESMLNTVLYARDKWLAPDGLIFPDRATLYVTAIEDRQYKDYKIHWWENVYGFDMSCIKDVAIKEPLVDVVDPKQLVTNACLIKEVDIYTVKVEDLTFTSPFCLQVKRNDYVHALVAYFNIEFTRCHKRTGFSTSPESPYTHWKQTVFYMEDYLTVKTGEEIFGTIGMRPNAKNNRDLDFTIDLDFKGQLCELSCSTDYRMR
Method: as §1

[5] = biological target: T3, CARM1 (Homo sapiens, UniProt Q86X55); test: HMT panel selectivity: CARM1
T3 sequence (Q86X55 1-608): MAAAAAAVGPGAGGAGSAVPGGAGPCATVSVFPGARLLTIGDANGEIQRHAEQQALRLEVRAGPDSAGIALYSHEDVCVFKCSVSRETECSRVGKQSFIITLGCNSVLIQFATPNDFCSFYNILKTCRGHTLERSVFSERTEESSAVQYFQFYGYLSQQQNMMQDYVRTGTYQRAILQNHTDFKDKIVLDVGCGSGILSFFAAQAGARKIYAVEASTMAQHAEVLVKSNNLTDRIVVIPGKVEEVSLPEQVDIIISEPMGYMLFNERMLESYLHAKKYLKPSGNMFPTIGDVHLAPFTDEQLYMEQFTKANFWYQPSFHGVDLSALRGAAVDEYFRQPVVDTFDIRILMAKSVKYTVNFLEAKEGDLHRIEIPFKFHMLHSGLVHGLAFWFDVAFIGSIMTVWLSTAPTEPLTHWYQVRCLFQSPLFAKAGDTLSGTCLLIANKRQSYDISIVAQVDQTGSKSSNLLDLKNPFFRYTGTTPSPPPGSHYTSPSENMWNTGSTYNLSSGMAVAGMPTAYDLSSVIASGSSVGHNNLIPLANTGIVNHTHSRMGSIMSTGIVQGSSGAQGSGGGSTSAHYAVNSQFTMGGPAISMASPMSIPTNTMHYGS
Method: as §1

[6] = biological target: PRMT5/MEP50 (Homo sapiens, UniProt O14744); test: HMT panel selectivity: PRMT5/MEP50
Sequence of PRMT5/MEP50 (O14744 whole entry, species assumed): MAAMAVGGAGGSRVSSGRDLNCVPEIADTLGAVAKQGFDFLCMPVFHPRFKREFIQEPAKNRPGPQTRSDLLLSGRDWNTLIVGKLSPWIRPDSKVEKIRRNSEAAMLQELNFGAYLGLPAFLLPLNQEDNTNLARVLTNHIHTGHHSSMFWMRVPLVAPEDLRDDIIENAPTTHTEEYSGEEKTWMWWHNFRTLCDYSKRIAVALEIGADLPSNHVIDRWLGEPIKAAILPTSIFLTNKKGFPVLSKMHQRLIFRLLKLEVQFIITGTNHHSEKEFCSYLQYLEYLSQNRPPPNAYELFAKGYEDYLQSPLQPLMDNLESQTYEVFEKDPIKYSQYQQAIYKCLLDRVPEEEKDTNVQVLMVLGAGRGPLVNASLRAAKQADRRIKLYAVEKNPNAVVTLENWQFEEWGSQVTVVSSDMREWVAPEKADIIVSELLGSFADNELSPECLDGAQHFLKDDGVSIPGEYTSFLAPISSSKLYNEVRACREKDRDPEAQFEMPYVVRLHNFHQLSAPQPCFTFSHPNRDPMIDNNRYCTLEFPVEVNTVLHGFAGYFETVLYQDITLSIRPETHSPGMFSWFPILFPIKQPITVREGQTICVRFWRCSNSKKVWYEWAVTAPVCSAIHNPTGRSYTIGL
Sequence of PRMT5/MEP50 (Q9BQA1 whole entry partner, species assumed): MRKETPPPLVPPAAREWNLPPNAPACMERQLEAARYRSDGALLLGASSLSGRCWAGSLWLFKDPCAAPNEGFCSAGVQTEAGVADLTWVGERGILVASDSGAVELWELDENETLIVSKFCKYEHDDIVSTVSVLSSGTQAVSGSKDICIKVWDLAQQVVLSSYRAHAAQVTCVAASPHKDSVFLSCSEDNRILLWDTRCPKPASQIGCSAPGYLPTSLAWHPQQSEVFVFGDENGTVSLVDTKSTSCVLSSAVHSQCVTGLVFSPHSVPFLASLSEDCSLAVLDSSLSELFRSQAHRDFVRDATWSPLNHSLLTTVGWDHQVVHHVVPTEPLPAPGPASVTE
Method: as §1

| pIC50 [1] | pIC50 [2] | pIC50 [3] | pIC50 [4] | pIC50 [5] | pIC50 [6] | Compound |
| --- | --- | --- | --- | --- | --- | --- |
| < 4.00 | < 4.00 | < 4.00 | < 4.00 | < 4.00 | < 4.00 | Cc1cc(C)n(-c2cc(N3CCc4ccccc4C3)ccc2[N+](=O)[O-])n1 [EED666] |
| < 4.00 | < 4.00 | < 4.00 | < 4.00 | < 4.00 | < 4.00 | COc1ccccc1CN1CC(c2cn(C)c3ccccc23)C(N(C)C)C1 (stereo not drawn) [EED709] |
| < 4.00 | < 4.00 | < 4.00 | < 4.00 | < 4.00 | < 4.00 | COc1cc(-c2cc3n(c(=N)c2C#N)CCc2cc4c(cc2-3)OCO4)ccc1OC(C)C [EED396] |

| Compound | pIC50 [1] | pIC50 [2] | pIC50 [3] | pIC50 [4] | pIC50 [5] | pIC50 [6] |
| --- | --- | --- | --- | --- | --- | --- |
| COc1cccc(CC2CC3Cc4c(cccc4OC)CC3N(C)C2)c1 (stereo not drawn) [EED210] | < 4.00 | < 4.00 | < 4.00 | < 4.00 | < 4.00 | < 4.00 |
| N#Cc1c2c(c3nncn3c1NCc1ccco1)CN(Cc1ccccc1)CC2 [EED162] | < 4.00 | < 4.00 | < 4.00 | < 4.00 | < 4.00 | < 4.00 |
